Measurements published in patent publication US9718825B2, “N-(4-(azaindazol-6-yl)-phenyl)-sulfonamides and their use as pharmaceuticals” (priority 2013, dated 2017).
Like-named read-outs stand apart in the source and are kept apart here.

Tests used:
[1] = target: recombinant human SGK-1 enzyme (Homo sapiens, UniProt O00141); experiment: Enzymatic activity assay: SGK-1 substrate peptide phosphorylation (Caliper lab-chip mobility shift); format: biochemical; details: peptide substrate 1 μM, ATP 10 μM, 60 min at 37° C., read-out: IC50 values for inhibition of SGK-1 enzymatic activity
Sequence of recombinant human SGK-1 enzyme (O00141 whole entry, looked up): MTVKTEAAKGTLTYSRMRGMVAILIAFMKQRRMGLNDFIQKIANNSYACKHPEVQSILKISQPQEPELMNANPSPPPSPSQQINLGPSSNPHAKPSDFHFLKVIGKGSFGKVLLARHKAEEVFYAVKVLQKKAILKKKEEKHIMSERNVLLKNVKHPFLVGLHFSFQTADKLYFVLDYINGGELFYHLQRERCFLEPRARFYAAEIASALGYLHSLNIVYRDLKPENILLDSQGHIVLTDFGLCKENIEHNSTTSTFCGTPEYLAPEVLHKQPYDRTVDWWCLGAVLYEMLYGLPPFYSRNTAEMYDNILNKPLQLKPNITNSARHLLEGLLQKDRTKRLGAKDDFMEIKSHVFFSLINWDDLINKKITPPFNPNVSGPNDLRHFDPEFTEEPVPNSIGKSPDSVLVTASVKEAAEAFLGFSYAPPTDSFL
Experimental: In one of the cellular assays, the SGK-1 dependent phosphorylation of glycogen synthase kinase 3beta (GSK3beta) in U2OS cells was measured, in another one, a functional electrophysiological assay, the SGK-1 dependent activation of epithelial Na^+ channel (ENaC) currents in A6 cell monolayers, and in another one chondrocyte hypertrophic differentiation in mouse chondrogenic ATDC5 cells.
A) Enzymatic Activity Assay
For the determination of the compound dose response, a 10 mM DMSO stock solution was diluted and tested in a ten-point, three-fold dilution series run in duplicate beginning at 30 μM final concentration. Data were analyzed using a four-parameter curve fit with a fixed minimum and maximum experimentally defined as the average positive and negative controls on each plate.

[2] = tested on: SGK-1 dependent phosphorylation of GSK3beta in U2OS cells; experiment: SGK-1 dependent phosphorylation of GSK3beta in U2OS cells overexpressing recombinant SGK-1 and GSK3beta; format: cell-based, human; details: U2OS cells, 6 h incubation, ratio of phosphorylated GSK3beta to total GSK3beta, read-out: IC50 values for inhibition of SGK-1 dependent phosphorylation of GSK3beta in U2OS cells
Experimental: B) Determination of the Effect on SGK-1 Dependent Phosphorylation of GSK3beta in U2OS Cells
U2OS cells were cultured in 1:1 Dulbecco modified Eagle medium/Ham's F12 and 10% heat-inactivated fetal calf serum (FCS Gold) at 37° C., 7% CO2 and 95% relative humidity. […] Cell suspension mixed with BacMam viruses was seeded in 96 well pCLEAR plates (Greiner) at 3×10^4 cells per well in 250 μl medium. […] 1 μl of a solution of the test compound at 250×final concentration was added. Cells are incubated at 37° C., 7% CO2 and 95% relative humidity. […] After removing the fixation solution, cells were permeabilised by adding 200 μl PBT (0.2% Triton X-100 in PBS) per well for 5 min. After removing PBT, cells were blocked by adding 200 μl of blocking solution (1% bovine serum albumine in PBS) per well. Blocking solution was removed and 50 μl of primary antibody (rabbit anti-phospho-GSK-3beta (Ser9), and mouse anti-GSK-3beta) were added for 1 h. […] After washing the cells 3 times with PBS, 200 μl of PBS were added. Fluorescence signals were measured with the ImageXpress MICRO (Molecular Devices).

SMILES	IC50 [1] [µM]	IC50 [2] [µM]	IC50 ([2]; Homo sapiens) [µM]
O=S(=O)(Nc1ccc(-c2nc(O[C@H]3CC[C@@H](O)CC3)c3cn[nH]c3n2)cc1)c1cc(Cl)ccc1Cl [Example 80]	< 0.0015	0.45	–
O=S(=O)(Nc1ccc(-c2nc(N3CCC(O)C3)c3cn[nH]c3n2)cc1F)c1cc(Cl)ccc1Cl (stereo not shown) [Example 438]	0.085	7.8	–
COc1ccc(Cl)c(S(=O)(=O)Nc2ccc(-c3nc(OCC4CNCCO4)c4cn[nH]c4n3)cc2)c1 (stereo not shown) [Example 306]	0.0071	0.019	–
Nc1n[nH]c2nc(-c3ccc(NS(=O)(=O)c4cc(Cl)ccc4Cl)cc3)ncc12 [Example 452]	0.002	0.98	–
Cc1ccc(C#N)c(S(=O)(=O)Nc2ccc(-c3ncc4c(C)n[nH]c4n3)cc2)c1 [Example 93]	2.4	3.3	–
O=S(=O)(Nc1ccc(-c2nc(O[C@@H]3CCC[C@H]3O)c3cn[nH]c3n2)cc1)c1cc(Cl)ccc1Cl [Example 88]	0.0067	4.5	–
COc1ccc(Cl)c(S(=O)(=O)Nc2ccc(-c3nc(OC4CCCNC4)c4c(C)n[nH]c4n3)cc2)c1 (stereo not shown) [Example 319]	0.0045	0.031	–
Cc1n[nH]c2nc(-c3ccc(NS(=O)(=O)c4cc(F)ccc4F)cc3)nc(OCC3CNCCO3)c12 (stereo not shown) [Example 292]	0.014	0.93	–
O=S(=O)(Nc1ccc(-c2nc(OC3CCC(O)C3)c3cn[nH]c3n2)cc1)c1cc(Cl)ccc1F (stereo not shown) [Example 75]	0.0048	0.25	–
COc1ccc(F)c(S(=O)(=O)Nc2ccc(-c3nc(C4CC4)c4cn[nH]c4n3)cc2)c1 [Example 147]	0.0015	0.059	–
Nc1n[nH]c2nc(-c3ccc(NS(=O)(=O)c4cccc(Cl)c4F)cc3)ncc12 [Example 515]	0.35	0.53	–
COc1nc(-c2ccc(NS(=O)(=O)c3cc(Cl)ccc3Cl)cc2)nc2[nH]ncc12 [Example 139]	0.082	5.5	–
Cc1ccc(F)c(S(=O)(=O)Nc2ccc(-c3nc(OC4C[C@@H](O)C[C@@H](O)C4)c4cn[nH]c4n3)cc2)c1 (stereo partly shown) [Example 119]	< 0.0015	11	–
Cc1n[nH]c2nc(-c3ccc(NS(=O)(=O)c4cc(C#N)ccc4F)cc3)nc(OC3CCC(O)CC3)c12 (stereo not shown) [Example 128]	0.0027	3.6	–
Cc1nc(-c2ccc(NS(=O)(=O)c3cccc(Cl)c3F)cc2)nc2[nH]nc(N)c12 [Example 171]	0.04	0.87	–
Nc1n[nH]c2cc(-c3ccc(NS(=O)(=O)c4cc(Cl)sc4Cl)cc3)ncc12 [Example 558]	0.013	0.52	–
Cc1n[nH]c2nc(-c3ccc(NS(=O)(=O)c4cc(Cl)ccc4C#N)cc3)nc(OCCCN)c12 [Example 220]	< 0.0015	0.17	–
COc1ccc(F)c(S(=O)(=O)Nc2ccc(-c3nc(OCC(C)C)c4c(N)n[nH]c4n3)cc2)c1 [Example 326]	0.0091	0.16	–
Cc1nc(-c2ccc(NS(=O)(=O)c3cc4c(cc3Cl)OCCCO4)cc2)nc2[nH]nc(N)c12 [Example 476]	0.0039	3	–
Cc1nc(-c2ccc(NS(=O)(=O)c3ccccc3F)cc2)nc2[nH]nc(N)c12 [Example 169]	0.11	0.25	–
Cc1n[nH]c2nc(-c3ccc(NS(=O)(=O)c4cc(F)ccc4F)cc3)nc(OC3CCNCC3F)c12 (stereo not shown) [Example 296]	0.0027	0.06	–
Cc1ccc(F)c(S(=O)(=O)Nc2ccc(-c3nc(OC4CCNCC4F)c4c(C)n[nH]c4n3)cc2)c1 (stereo not shown) [Example 298]	0.0023	0.043	–

SMILES	IC50 [1] [µM]	IC50 [2] [µM]	IC50 ([2]; Homo sapiens) [µM]
O=S(=O)(Nc1ccc(-c2nc(O[C@H]3CCCC[C@H]3O)c3cn[nH]c3n2)cc1)c1cc(Cl)ccc1Cl [Example 82]	0.012	2.1	–
Cc1ccc(F)c(S(=O)(=O)Nc2ccc(-c3nc(OC4CCC(O)CC4)c4cn[nH]c4n3)cc2)c1 (stereo not shown) [Example 92]	0.0021	0.18	–
COc1ccc(Cl)c(S(=O)(=O)Nc2ccc(-c3nc(OC4CCNCC4F)c4c(C)n[nH]c4n3)cc2)c1 (stereo not shown) [Example 304]	0.0023	0.13	–
Cc1n[nH]c2nc(-c3ccc(NS(=O)(=O)c4cc(Cl)ccc4Cl)cc3)nc(OC3CCNCC3F)c12 (stereo not shown) [Example 303]	0.0022	0.057	–
O=S(=O)(Nc1ccc(-c2nc(N[C@H]3CC[C@@H](O)CC3)c3cn[nH]c3n2)cc1)c1cc(Cl)ccc1F [Example 77]	0.0039	3.6	–
CC(C)Oc1nc(-c2ccc(NS(=O)(=O)c3cc(Cl)ccc3F)c(F)c2)nc2[nH]nc(N)c12 [Example 444, N-[4-(3-Amino-4-isopropoxy-1H-pyrazolo[3,4-d]pyrimidin-6-yl)-2-fluoro-phenyl]-5-chloro-2-fluoro-benzenesulfonamide]	–	–	0.05
COc1ccc(Cl)c(S(=O)(=O)Nc2ccc(-c3nc(OCCCN)c4cn[nH]c4n3)cc2)c1 [Example 203]	< 0.0015	0.16	–
Cc1n[nH]c2nc(-c3ccc(NS(=O)(=O)c4cc(Cl)ccc4Cl)cc3)nc(OCCCN)c12 [Example 210]	< 0.0015	0.098	–
Cc1ccc(F)c(S(=O)(=O)Nc2ccc(-c3nc(C)c4c(N)n[nH]c4n3)cc2)c1 [Example 472]	0.0015	0.33	–
Cc1n[nH]c2nc(-c3ccc(NS(=O)(=O)c4cc(Cl)ccc4F)cc3)nc(OCC3CNCCO3)c12 (stereo not shown) [Example 291]	0.0025	0.076	–
Cc1n[nH]c2nc(-c3ccc(NS(=O)(=O)c4cc(Cl)ccc4Cl)c(F)c3)ncc12 [Example 434]	0.0018	3.5	–
Cc1n[nH]c2nc(-c3ccc(NS(=O)(=O)c4ccccc4F)cc3)nc(OCCCN)c12 [Example 211]	0.0023	0.08	–
Cc1ccc(C#N)c(S(=O)(=O)Nc2ccc(-c3cc4[nH]nc(N)c4cn3)cc2)c1 [Example 553, N-[4-(3-Amino-1H-pyrazolo[4,3-c]pyridin-6-yl)phenyl]-2-cyano-5-methyl-benzenesulfonamide]	–	–	6.4
Nc1n[nH]c2nc(-c3ccc(NS(=O)(=O)c4cc(Cl)ccc4F)cc3)nc(C(F)(F)F)c12 [Example 568, N-[4-(3-Amino-4-trifluoromethyl-1H-pyrazolo[3,4-d]pyrimidin-6-yl)-phenyl]-5-chloro-2-fluoro-benzenesulfonamide]	–	–	0.17
Nc1n[nH]c2nc(-c3ccc(NS(=O)(=O)c4cc(Cl)c(F)cc4F)cc3)ncc12 [Example 445, N-[4-(3-Amino-1H-pyrazolo[3,4-d]pyrimidin-6-yl)-phenyl]-5-chloro-2,4-difluoro-benzenesulfonamide]	–	–	0.34
Cc1nc(-c2ccc(NS(=O)(=O)c3cc(Cl)ccc3Cl)cc2)nc2[nH]nc(NC(=O)C3CCOCC3)c12 [Example 545, N-[6-[4-[(2,5-Dichlorophenyl)sulfonylamino]phenyl]-4-methyl-1H-pyrazolo[3,4-d]pyrimidin-3-yl]tetrahydropyran-4-carboxamide]	–	–	0.073
Cc1nc(-c2ccc(NS(=O)(=O)c3cc(Cl)ccc3F)cc2)nc2[nH]ncc12 [Example 6, 5-Chloro-2-fluoro-N-[4-(4-methyl-1H-pyrazolo[3,4-d]pyrimidin-6-yl)-phenyl]-benzenesulfonamide]	–	–	2.6
Cc1nc(-c2ccc(NS(=O)(=O)c3cc(Cl)ccc3Cl)cc2)nc2[nH]nc(NC(=O)C3CC(O)C3)c12 (stereo not shown) [Example 536, 3-Hydroxy-cyclobutanecarboxylic acid {6-[4-(2,5-dichloro-benzenesulfonylamino)-phenyl]-4-methyl-1H-pyrazolo[3,4-d]pyrimidin-3-yl}-amide]	–	–	3.1
COc1ccc(Cl)c(S(=O)(=O)Nc2ccc(-c3ncc4c(C)n[nH]c4n3)cc2F)c1 [Example 533, 2-Chloro-N-[2-fluoro-4-(3-methyl-1H-pyrazolo[3,4-d]pyrimidin-6-yl)-phenyl]-5-methoxy-benzenesulfonamide]	–	–	1.8
Cc1nc(-c2ccc(NS(=O)(=O)c3cc(Cl)ccc3Cl)cc2)nc2[nH]nc(NCC3CCOCC3)c12 [Example 547, 2,5-Dichloro-N-(4-{4-methyl-3-[(tetrahydro-pyran-4-ylmethyl)-amino]-1H-pyrazolo[3,4-d]pyrimidin-6-yl}-phenyl)-benzenesulfonamide]	–	–	4
Cc1n[nH]c2nc(-c3ccc(NS(=O)(=O)c4cc(Cl)c(F)cc4F)cc3)ncc12 [Example 449, 5-Chloro-2,4-difluoro-N-[4-(3-methyl-1H-pyrazolo[3,4-d]pyrimidin-6-yl)-phenyl]-benzenesulfonamide]	–	–	4.9
